Laboratory results from patent publication US8822217B2, “Method for cultivating tendon cells from pluripotent cells of mesenchymal origin” (Angewandte Biotechnologie GmbH, priority 2007, dated 2014).

Legend:
[1] = test system: pluripotent cells of mesenchymal origin; test: Cell morphology of the cell culture after treatment; type: cell-based, human
Protocol: In order to isolate pluripotent cells of mesenchymal origin, small pieces of Substantia spongiosa, biopsied from the human wing of ilium were digested at 37° C. in 2 ml of DMEM (Dulbecco's modified eagles medium with 4.5 g/l of glucose) with 2.5 mg/ml collagenase for 3 h. The cell pellet obtained from the digested pieces by multiple centrifugation was inoculated in a density of 200000 cells/cm^2 and was incubated for 24 h in DMEM with 10% foetal calf serum (FCS) and specifically at 37° C., 5% C02 and 100% humidity. One preparation gives a growth area of 60 to 180 cm^2. The culture medium was changed twice a week. Before the cells are confluent after six days, they are passaged in the usual way. The first passage is cultivated further under the standard conditions described until the logarithmic growth phase is reached after three days. The culture medium is then exchanged for a medium which was adjusted to an osmolarity of 360 mosmol/l with the aid of saccharose and, in addition to DMEM mixed with 10% FCS, contains 50 μg/ml of ascorbic acid-2-phosphate. The cells are incubated for four days in this culture medium. […] In addition, the secretion of type I collagen and its cross-linking increases. […]

[2] = test system: pluripotent cells of mesenchymal origin; test: Western Blot analysis for the collagen production; type: cell-based, human; details: for secretion of type I collagen (double band at 130 kD): vs untreated sample a; for cross-linking of the collagen (area of 400 kD): compared to sample b
Protocol: In order to isolate pluripotent cells of mesenchymal origin, small pieces of Substantia spongiosa, biopsied from the human wing of ilium were digested at 37° C. in 2 ml of DMEM (Dulbecco's modified eagles medium with 4.5 g/l of glucose) with 2.5 mg/ml collagenase for 3 h. The cell pellet obtained from the digested pieces by multiple centrifugation was inoculated in a density of 200000 cells/cm^2 and was incubated for 24 h in DMEM with 10% foetal calf serum (FCS) and specifically at 37° C., 5% C02 and 100% humidity. One preparation gives a growth area of 60 to 180 cm^2. The culture medium was changed twice a week. Before the cells are confluent after six days, they are passaged in the usual way. The first passage is cultivated further under the standard conditions described until the logarithmic growth phase is reached after three days. The culture medium is then exchanged for a medium which was adjusted to an osmolarity of 360 mosmol/l with the aid of saccharose and, in addition to DMEM mixed with 10% FCS, contains 50 μg/ml of ascorbic acid-2-phosphate. The cells are incubated for four days in this culture medium. […] In addition, the secretion of type I collagen and its cross-linking increases. Following stimulation of the cells to enhanced collagen secretion under hyperosmolar conditions, they are cultivated in a standard culture medium for a further 12 h in order to then be investigated.

[3] = sample c: treatment under hyperosmolar conditions
[4] = sample c: treatment under hyperosmolar conditions, listed as ascorbic-2-phosphate

**Q.** For O=C1O[C@H]([C@@H](O)CO)C(O)=C1OP(=O)(O)O [ascorbic acid-2-phosphate], which “change in the cellular phenotype” value ([1]; 50 μg/ml, hyperosmolar conditions (360 mosmol/l with saccharose), four days) is on record?
**A.** the cells become fibroblastic

**Q.** And the “cell structure (FIG. 1 vs FIG. 2)” value ([1]; treatment with ascorbic-2-phosphate, polygonal structure before treatment)?
**A.** fibroblastic structures

**Q.** And the “secretion of type I collagen (double band at 130 kD)” value (“secretion of type I collagen” for short) ([2]; sample b: treatment without hyperosmolar conditions)?
**A.** significant increase

**Q.** And the “resistance to digestion with pepsin” value [2, 3]?
**A.** more resistant to digestion with pepsin

**Q.** What about the “cross-linking of the collagen (area of 400 kD)” value [2, 3] of the same molecule?
**A.** increases

**Q.** What about the “cross-linking of the collagen (area of 400 kD)” value [2, 4] of the same molecule?
**A.** enhanced cross-linking

**Q.** What about the “secretion of type I collagen” value [2, 3] of the same molecule?
**A.** increases

**Q.** And the “secretion of type I collagen” value [2, 4]?
**A.** significant increase
